# Patent publication US11180530B2, “Salt of phenylpropionamide derivative and preparation method therefor” (priority 2017, dated 2021)
# Structures can show the parent of a compound that is named as a salt. Where two headings read alike, the source gives them in different places. Where a SMILES comes first, the peptide text is derived from it. [ ]: non-standard residue; d: D form. The star is where a group is joined. Gly(N-(2R-Ph-propyl)) = C[C@@H](CNCC(=O)O)c1ccccc1; Piperidin1yl(4-NH2,4-COOH) = NC1(C(=O)O)CCN(*)CC1
# Assays:
# [1] = type: physicochemical
# Procedure: Samples of the compound represented by formula (I) and acetate, hydrochloride, citrate and phosphate of the compound represented by formula (I) were respectively placed open and evenly spread, so that the stability of the samples were investigated under the conditions of room temperature, heating (40° C., 60° C.), illumination (4500Lux) and high humidity (RH75% and RH90%). The sampling period is 20 days.
# [2] = type: physicochemical; remark: listed apart in the source
# Procedure: Samples of acetate, hydrochloride, citrate and phosphate of the compound represented by formula (I) were subjected to a long-term accelerated stability investigation for 6 months under dark and sealed conditions (the inner package is a medicinal low-density polyethylene composite film and the outer package is aluminum foil), humidity (60% RH), temperature (4° C., 25° C.) and with/without nitrogen protection.
# [3] = 25° C., 60% RH, nitrogen protection, 1 month
# [4] = 25° C., 60% RH, nitrogen protection, 3 months
# [5] = 25° C., 60% RH, nitrogen protection, 6 months
# [6] = 25° C., 60% RH, nitrogen protection, initial
compound,measurement,setting,value
"CC(C)C[C@@H](NC(=O)[C@@H](Cc1ccccc1)NC(=O)CNC[C@H](C)c1ccccc1)C(=O)N[C@H](CCCCN)C(=O)N1CCC(N)(C(=O)O)CC1 [Citrate (1:2)] (H-[Gly(N-(2R-Ph-propyl))][dF][dL][dK]-{Piperidin1yl(4-NH2,4-COOH)})",Stability (conclusion in words),[1]; high temperature of 60° C.,degraded greatly
"CC(C)C[C@@H](NC(=O)[C@@H](Cc1ccccc1)NC(=O)CNC[C@H](C)c1ccccc1)C(=O)N[C@H](CCCCN)C(=O)N1CCC(N)(C(=O)O)CC1 [Acetate (1:2)] (H-[Gly(N-(2R-Ph-propyl))][dF][dL][dK]-{Piperidin1yl(4-NH2,4-COOH)})",Stability (conclusion in words),[1]; high temperature,poor stability
same,acetate (radical) content by ion chromatography,"[1]; high temperature, after the 20-day experiment",greatly reduced
"CC(C)C[C@@H](NC(=O)[C@@H](Cc1ccccc1)NC(=O)CNC[C@H](C)c1ccccc1)C(=O)N[C@H](CCCCN)C(=O)N1CCC(N)(C(=O)O)CC1 [Embodiment 15, 4-amino-1-((2R,5R,8R,14R)-2-(4-aminobutyl)-8-benzyl-5-isobutyl-4,7,10-trioxo-14-phenyl-3,6,9,12-tetraazapentadecan-1-acyl)piperidine-4-carboxylic acid] (H-[Gly(N-(2R-Ph-propyl))][dF][dL][dK]-{Piperidin1yl(4-NH2,4-COOH)})",Purity %,"[2]; 4° C., 1 month",99.63%
same,Purity %,"[2]; 4° C., 3 months",99.62%
same,Purity %,"[2]; 4° C., 6 months",99.66%
same,Purity %,"[2]; 4° C., initial",99.64%
same,Purity %,[2]; [3],9.65%
same,Purity %,[2]; [4],99.62%
same,Purity %,[2]; [5],99.63%
same,Purity %,[2]; [6],99.64%
same,Purity %,"[2]; 25° C., 60% Rh, 1 month",99.64%
same,Purity %,"[2]; 25° C., 60% Rh, 3 months",99.63%
same,Purity %,"[2]; 25° C., 60% Rh, 6 months",99.64%
same,Purity %,"[2]; 25° C., 60% Rh, initial",99.64%
same,Purity %,"[1]; 4500 Lux, 0 days (initial)",96.32%
same,Purity %,"[1]; 4500 Lux, 5 days",96.07%
same,Purity %,"[1]; 4500 Lux, 10 days",95.62%
same,Purity %,"[1]; 4500 Lux, 20 days",95.76%
"CC(C)C[C@@H](NC(=O)[C@@H](Cc1ccccc1)NC(=O)CNC[C@H](C)c1ccccc1)C(=O)N[C@H](CCCCN)C(=O)N1CCC(N)(C(=O)O)CC1 [Embodiment 6, 4-amino-1-((2R,5R,8R,14R)-2-(4-aminobutyl)-8-benzyl-5-isobutyl-4,7,10-trioxo-14-phenyl-3,6,9,12-tetraazapentadecan-1-acyl)piperidine-4-carboxylic acid] (H-[Gly(N-(2R-Ph-propyl))][dF][dL][dK]-{Piperidin1yl(4-NH2,4-COOH)})",Purity %,"[1]; 25° C., 5 days",99.27%
same,Purity %,"[1]; 25° C., 10 days",99.27%
same,Purity %,"[1]; 25° C., 20 days",99.30%
same,Purity %,"[1]; 40° C., 5 days",99.03%
same,Purity %,"[1]; 4500 Lux, 0 days (initial)",99.32%
same,Purity %,"[1]; 4500 Lux, 5 days",97.13%
same,Purity %,"[1]; 4500 Lux, 10 days",95.32%
same,Purity %,"[1]; 4500 Lux, 20 days",92.39%
"CC(C)C[C@@H](NC(=O)[C@@H](Cc1ccccc1)NC(=O)CNC[C@H](C)c1ccccc1)C(=O)N[C@H](CCCCN)C(=O)N1CCC(N)(C(=O)O)CC1 [Acetate (1:1)] (H-[Gly(N-(2R-Ph-propyl))][dF][dL][dK]-{Piperidin1yl(4-NH2,4-COOH)})",Long-term stability (conclusion in words),"[2]; 6 months, 4° C., 25° C., 60% RH, with/without nitrogen protection, amorphous samples",stable
same,Stability (conclusion in words),"[1]; illumination, 40° C., 60° C.",degraded varying degrees
"CC(C)C[C@@H](NC(=O)[C@@H](Cc1ccccc1)NC(=O)CNC[C@H](C)c1ccccc1)C(=O)N[C@H](CCCCN)C(=O)N1CCC(N)(C(=O)O)CC1 [hydrochloride (1:3)] (H-[Gly(N-(2R-Ph-propyl))][dF][dL][dK]-{Piperidin1yl(4-NH2,4-COOH)})",Stability (conclusion in words),[1]; illumination condition,slightly degraded
same,Stability (conclusion in words),[1]; other conditions (than illumination),stable
"CC(C)C[C@@H](NC(=O)[C@@H](Cc1ccccc1)NC(=O)CNC[C@H](C)c1ccccc1)C(=O)N[C@H](CCCCN)C(=O)N1CCC(N)(C(=O)O)CC1 [Embodiment 4, 4-amino-1-((2R,5R,8R,14R)-2-(4-aminobutyl)-8-benzyl-5-isobutyl-4,7,10-trioxo-14-phenyl-3,6,9,12-tetraazapentadecan-1-acyl)piperidine-4-carboxylic acid] (H-[Gly(N-(2R-Ph-propyl))][dF][dL][dK]-{Piperidin1yl(4-NH2,4-COOH)})",Purity %,"[1]; 25° C., 5 days",97.56%
same,Purity %,"[1]; 25° C., 10 days",97.44%
same,Purity %,"[1]; 25° C., 20 days",97.28%
same,Purity %,"[1]; 40° C., 5 days",86.31%
same,Purity %,"[1]; 4500 Lux, 0 days (initial)",97.70%
same,Purity %,"[1]; 4500 Lux, 5 days",95.83%
same,Purity %,"[1]; 4500 Lux, 10 days",94.91%
same,Purity %,"[1]; 4500 Lux, 20 days",92.17%
"CC(C)C[C@@H](NC(=O)[C@@H](Cc1ccccc1)NC(=O)CNC[C@H](C)c1ccccc1)C(=O)N[C@H](CCCCN)C(=O)N1CCC(N)(C(=O)O)CC1 [Embodiment 12, 4-amino-1-((2R,5R,8R,14R)-2-(4-aminobutyl)-8-benzyl-5-isobutyl-4,7,10-trioxo-14-phenyl-3,6,9,12-tetraazapentadecan-1-acyl)piperidine-4-carboxylic acid] (H-[Gly(N-(2R-Ph-propyl))][dF][dL][dK]-{Piperidin1yl(4-NH2,4-COOH)})",Purity %,"[1]; 25° C., 5 days",96.93%
same,Purity %,"[1]; 25° C., 10 days",96.80%
same,Purity %,"[1]; 25° C., 20 days",96.97%
same,Purity %,"[1]; 4500 Lux, 0 days (initial)",97.04%
same,Purity %,"[1]; 4500 Lux, 5 days",96.65%
same,Purity %,"[1]; 4500 Lux, 10 days",96.63%
same,Purity %,"[1]; 4500 Lux, 20 days",96.77%
"CC(C)C[C@@H](NC(=O)[C@@H](Cc1ccccc1)NC(=O)CNC[C@H](C)c1ccccc1)C(=O)N[C@H](CCCCN)C(=O)N1CCC(N)(C(=O)O)CC1 [Embodiment 11, 4-amino-1-((2R,5R,8R,14R)-2-(4-aminobutyl)-8-benzyl-5-isobutyl-4,7,10-trioxo-14-phenyl-3,6,9,12-tetraazapentadecan-1-acyl)piperidine-4-carboxylic acid] (H-[Gly(N-(2R-Ph-propyl))][dF][dL][dK]-{Piperidin1yl(4-NH2,4-COOH)})",Purity %,"[2]; 4° C., 1 month",99.49%
same,Purity %,"[2]; 4° C., 3 months",99.56%
same,Purity %,"[2]; 4° C., 6 months",99.57%
same,Purity %,"[2]; 4° C., initial",99.50%
same,Purity %,[2]; [3],99.50%
same,Purity %,[2]; [4],99.51%
same,Purity %,[2]; [5],99.51%
same,Purity %,[2]; [6],99.50%
same,Purity %,"[2]; 25° C., 60% Rh, 1 month",99.50%
same,Purity %,"[2]; 25° C., 60% Rh, 3 months",99.52%
same,Purity %,"[2]; 25° C., 60% Rh, 6 months",99.5%
same,Purity %,"[2]; 25° C., 60% Rh, initial",99.50%
"CC(C)C[C@@H](NC(=O)[C@@H](Cc1ccccc1)NC(=O)CNC[C@H](C)c1ccccc1)C(=O)N[C@H](CCCCN)C(=O)N1CCC(N)(C(=O)O)CC1 [Embodiment 14, 4-amino-1-((2R,5R,8R,14R)-2-(4-aminobutyl)-8-benzyl-5-isobutyl-4,7,10-trioxo-14-phenyl-3,6,9,12-tetraazapentadecan-1-acyl)piperidine-4-carboxylic acid] (H-[Gly(N-(2R-Ph-propyl))][dF][dL][dK]-{Piperidin1yl(4-NH2,4-COOH)})",Purity %,"[1]; 4500 Lux, 0 days (initial)",99.19%
same,Purity %,"[1]; 4500 Lux, 5 days",99.15%
same,Purity %,"[1]; 4500 Lux, 10 days",99.12%
same,Purity %,"[1]; 4500 Lux, 20 days",99.12%
"CC(C)C[C@@H](NC(=O)[C@@H](Cc1ccccc1)NC(=O)CNC[C@H](C)c1ccccc1)C(=O)N[C@H](CCCCN)C(=O)N1CCC(N)(C(=O)O)CC1 [Embodiment 2, 4-amino-1-((2R,5R,8R,14R)-2-(4-aminobutyl)-8-benzyl-5-isobutyl-4,7,10-trioxo-14-phenyl-3,6,9,12-tetraazapentadecan-1-acyl)piperidine-4-carboxylic acid] (H-[Gly(N-(2R-Ph-propyl))][dF][dL][dK]-{Piperidin1yl(4-NH2,4-COOH)})",Purity %,"[1]; 25° C., 5 days",97.64%
same,Purity %,"[1]; 25° C., 10 days",97.64%
same,Purity %,"[1]; 25° C., 20 days",97.63%
same,Purity %,"[1]; 40° C., 5 days",96.23%
same,Purity %,"[1]; 4500 Lux, 0 days (initial)",97.65%
same,Purity %,"[1]; 4500 Lux, 5 days",96.99%
same,Purity %,"[1]; 4500 Lux, 10 days",96.68%
same,Purity %,"[1]; 4500 Lux, 20 days",96.72%
"CC(C)C[C@@H](NC(=O)[C@@H](Cc1ccccc1)NC(=O)CNC[C@H](C)c1ccccc1)C(=O)N[C@H](CCCCN)C(=O)N1CCC(N)(C(=O)O)CC1 [hydrochloride (1:2)] (H-[Gly(N-(2R-Ph-propyl))][dF][dL][dK]-{Piperidin1yl(4-NH2,4-COOH)})",Stability (conclusion in words),"[1]; illumination and high temperature, 20 days",slightly degraded
"CC(C)C[C@@H](NC(=O)[C@@H](Cc1ccccc1)NC(=O)CNC[C@H](C)c1ccccc1)C(=O)N[C@H](CCCCN)C(=O)N1CCC(N)(C(=O)O)CC1 [Embodiment 13, 4-amino-1-((2R,5R,8R,14R)-2-(4-aminobutyl)-8-benzyl-5-isobutyl-4,7,10-trioxo-14-phenyl-3,6,9,12-tetraazapentadecan-1-acyl)piperidine-4-carboxylic acid] (H-[Gly(N-(2R-Ph-propyl))][dF][dL][dK]-{Piperidin1yl(4-NH2,4-COOH)})",Purity %,"[1]; 4500 Lux, 0 days (initial)",97.39%
same,Purity %,"[1]; 4500 Lux, 5 days",97.29%
same,Purity %,"[1]; 4500 Lux, 10 days",97.28%
same,Purity %,"[1]; 4500 Lux, 20 days",97.28%
"CC(C)C[C@@H](NC(=O)[C@@H](Cc1ccccc1)NC(=O)CNC[C@H](C)c1ccccc1)C(=O)N[C@H](CCCCN)C(=O)N1CCC(N)(C(=O)O)CC1 [Embodiment 3, 4-amino-1-((2R,5R,8R,14R)-2-(4-aminobutyl)-8-benzyl-5-isobutyl-4,7,10-trioxo-14-phenyl-3,6,9,12-tetraazapentadecan-1-acyl)piperidine-4-carboxylic acid] (H-[Gly(N-(2R-Ph-propyl))][dF][dL][dK]-{Piperidin1yl(4-NH2,4-COOH)})",Purity %,"[2]; 4° C., 1 month",99.59%
same,Purity %,"[2]; 4° C., 3 months",99.58%
same,Purity %,"[2]; 4° C., 6 months",99.60%
same,Purity %,"[2]; 4° C., initial",99.59%
same,Aspect,[2]; [3],White
same,Purity %,[2]; [3],99.58%
same,Aspect,[2]; [4],White
same,Purity %,[2]; [4],99.51%
same,Aspect,[2]; [5],White
same,Purity %,[2]; [5],99.54%
same,Aspect,[2]; [6],White
same,Purity %,[2]; [6],99.59%
same,Aspect,"[2]; 25° C., 60% Rh, 1 month",White
same,Purity %,"[2]; 25° C., 60% Rh, 1 month",99.62%
same,Aspect,"[2]; 25° C., 60% Rh, 3 months",White
same,Purity %,"[2]; 25° C., 60% Rh, 3 months",99.61%
same,Aspect,"[2]; 25° C., 60% Rh, 6 months",White
same,Purity %,"[2]; 25° C., 60% Rh, 6 months",99.57%
same,Aspect,"[2]; 25° C., 60% Rh, initial",White
same,Purity %,"[2]; 25° C., 60% Rh, initial",99.59%
